Measurements from paper PMC3914206.

Key:
Type in all cases: binding
Design in all cases: KINOMEscan: ABL1(F317L)-phosphorylated / KINOMEscan: ABL1(H396P)-nonphosphorylated / KINOMEscan: ABL1(H396P)-phosphorylated / KINOMEscan: ABL1(M351T)-phosphorylated / KINOMEscan: ABL1(T315I)-phosphorylated / KINOMEscan: ABL1-nonphosphorylated / KINOMEscan: ABL1-phosphorylated / KINOMEscan: ACVR2A / KINOMEscan: ACVR2B / KINOMEscan: ADCK3 / KINOMEscan: ADCK4 / KINOMEscan: AKT1 / KINOMEscan: AKT3 / KINOMEscan: ALK / KINOMEscan: ARK5 / KINOMEscan: AURKA / KINOMEscan: AURKC / KINOMEscan: BIKE / KINOMEscan: BMPR1A / KINOMEscan: BMPR1B / KINOMEscan: BMX / KINOMEscan: BRK / KINOMEscan: BRSK1 / KINOMEscan: BRSK2 / KINOMEscan: CAMK1 / KINOMEscan: CAMK1D / KINOMEscan: CAMK1G / KINOMEscan: CAMK2A / KINOMEscan: CAMK2B / KINOMEscan: AAK1 / KINOMEscan: CAMK2D / KINOMEscan: CAMK2G / KINOMEscan: ABL1(F317I)-nonphosphorylated / KINOMEscan: ABL1(F317I)-phosphorylated / KINOMEscan: ABL1(F317L)-nonphosphorylated: unit: % Ctrl
Conditions in all cases: Compound Concentration 10 µM
panel of 442 kinases [1] = target: T1, panel of 442 kinases (Homo sapiens, UniProt P00519, H396P)
T1 construct: purchased KINOMEscan
Excerpt: (§1) We assessed the selectivity of members of this scaffold using the KINOMEscan methodology across a near comprehensive panel of 442 kinases [[18,27]].

panel of 442 kinases [2] = target: T2, panel of 442 kinases (Homo sapiens, UniProt P51817)
T2 construct: purchased KINOMEscan
T2 sequence (P51817 1-358): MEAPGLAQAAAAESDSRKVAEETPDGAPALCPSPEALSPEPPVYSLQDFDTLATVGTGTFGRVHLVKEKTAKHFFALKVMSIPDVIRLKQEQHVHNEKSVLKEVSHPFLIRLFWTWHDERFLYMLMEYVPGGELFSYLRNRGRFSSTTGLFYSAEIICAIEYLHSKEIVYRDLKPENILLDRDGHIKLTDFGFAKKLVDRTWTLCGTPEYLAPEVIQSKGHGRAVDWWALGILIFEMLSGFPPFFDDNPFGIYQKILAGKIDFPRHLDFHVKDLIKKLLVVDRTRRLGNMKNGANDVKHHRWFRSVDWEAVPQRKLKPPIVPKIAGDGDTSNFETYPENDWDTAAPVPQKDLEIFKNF
Excerpt: as §1

panel of 442 kinases [3] = target: T3, panel of 442 kinases (Homo sapiens, UniProt Q9Y2U5)
T3 construct: purchased KINOMEscan
T3 sequence (Q9Y2U5 1-619): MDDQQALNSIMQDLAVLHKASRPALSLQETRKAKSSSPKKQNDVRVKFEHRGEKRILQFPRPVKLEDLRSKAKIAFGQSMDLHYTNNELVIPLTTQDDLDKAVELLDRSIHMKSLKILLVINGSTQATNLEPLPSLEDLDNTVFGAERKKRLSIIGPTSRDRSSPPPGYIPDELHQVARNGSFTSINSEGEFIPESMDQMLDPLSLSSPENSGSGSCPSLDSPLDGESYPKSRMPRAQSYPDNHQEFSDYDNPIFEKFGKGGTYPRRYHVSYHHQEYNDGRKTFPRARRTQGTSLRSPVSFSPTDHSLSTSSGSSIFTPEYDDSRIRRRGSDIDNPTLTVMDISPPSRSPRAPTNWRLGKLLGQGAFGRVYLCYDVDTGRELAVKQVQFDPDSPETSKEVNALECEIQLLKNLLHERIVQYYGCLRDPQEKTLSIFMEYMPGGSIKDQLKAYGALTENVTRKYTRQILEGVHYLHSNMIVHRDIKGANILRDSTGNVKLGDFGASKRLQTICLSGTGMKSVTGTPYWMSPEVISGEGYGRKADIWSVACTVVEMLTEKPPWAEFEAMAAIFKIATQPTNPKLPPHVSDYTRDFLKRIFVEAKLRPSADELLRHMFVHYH
Excerpt: as §1

Compound	KINOMEscan: ABL1(H396P)-nonphosphorylated (panel of 442 kinases [1])	KINOMEscan: ABL1(H396P)-phosphorylated (panel of 442 kinases [1])	KINOMEscan: PRKX (panel of 442 kinases [2])	KINOMEscan: MAP3K2 (panel of 442 kinases [3])
COc1cc(C(=O)N2CCC(N3CCN(C)CC3)CC2)ccc1Nc1ncc2c(n1)N(C)c1ccccc1C(=O)N2C [15 (LRRK2-IN-1)]	100	100	99	97
COc1cc(C(=O)N2CCC(N3CCN(C)CC3)CC2)ccc1Nc1ncc2c(n1)N1CCc3cccc(c31)C(=O)N2C [Compound 24]	34	100	87	–
COc1cc(C(=O)N2CCC(N3CCN(C)CC3)CC2)ccc1Nc1ncc2c(n1)N(C1CCCC1)c1ccccc1C(=O)N2C [Compound 25, 11-cyclopentyl-2-((2-methoxy-4-(4-(4-methylpiperazin-1-yl)piperidine-1-carbonyl)phenyl)amino)-5-methyl-5H-benzo[e]pyrimido[5,4-b][1,4]diazepin-6(11H)-one]	47	100	100	90
CCOc1cc(C(=O)N2CCC(N3CCN(C)CC3)CC2)ccc1Nc1ncc2c(n1)N(C1CCCC1)c1ccccc1C(=O)N2C [Compound 26]	86	100	100	100
